Data as given in ChEMBL document CHEMBL3351660, “Isolation and total syntheses of cytotoxic cryptolactones A1, A2, B1, and B2: α,β-unsaturated δ-lactones from a Cryptomyzus sp. aphid” (J Nat Prod, 2014).

Test: Cytotoxicity against human HL60 cells after 24 hrs by MTT assay
Type: functional, cell-based
Conditions: HL-60, 24 h

SMILES | IC50 [nM]
CCCCCCCCCC(=O)C[C@H](O)C[C@@H]1CC=CC(=O)O1 | 1200
CCCCCCCCCC(=O)C[C@@H](O)C[C@@H]1CC=CC(=O)O1 | 5300
CCCCCCCCCCCC(=O)C[C@H](O)C[C@@H]1CC=CC(=O)O1 | 970
CCCCCCCCCCCC(=O)C[C@@H](O)C[C@@H]1CC=CC(=O)O1 | 4900
COc1cccc2c1C(=O)c1c(O)c3c(c(O)c1C2=O)C[C@@](O)(C(=O)CO)C[C@@H]3O[C@H]1C[C@H](N)[C@H](O)[C@H](C)O1 [DOXORUBICIN] | 140
